Data: publication PMC10145973, “Genomic Insights into Bacterial Resistance to Proline-Rich Antimicrobial Peptide Bac7” (Membranes, 2023)
≈ marks a conversion by molar mass, not a printed value. Where “and” joins values, the source holds several entries; their conditions need not be identical. Equal entries are not always repeated. Where a SMILES comes first, the peptide text is derived from it. Bridges are numbered along the chain shown (N, C = ends).

Experiments:
E. coli MDR 1057 P1 [1] = conditions: Table 2; broth microdilution in MHB (medium ±0.9% NaCl not given), 0.1% BSA, 24 h, 37 °C; median of at least three independent experiments in triplicate
E. coli MDR 1057 B3 [2] = conditions: Table 2; broth microdilution in MHB (medium ±0.9% NaCl not given), 0.1% BSA, 24 h, 37 °C; median of at least three independent experiments in triplicate
E. coli MDR 1057 WT [3] = conditions: Table 2; broth microdilution in MHB (medium ±0.9% NaCl not given), 10^6 CFU/mL suspension, agents diluted in 0.1% BSA, 24 h, 37 °C, visible turbidity; median of at least three independent experiments in triplicate
E. coli MDR 1057 B2 [4] = conditions: Table 2; broth microdilution in MHB (medium ±0.9% NaCl not given), 0.1% BSA, 24 h, 37 °C; median of at least three independent experiments in triplicate
E. coli MDR 1057 B3 [5] = experiment: microbe, parasite or virus in culture; conditions: Escherichia coli, MDR1057B3, 24 h, read-out: Minimum Inhibitory Concentration, B3
E. coli MDR 1057 P1 [6] = experiment: microbe, parasite or virus in culture; conditions: Escherichia coli, MDR1057P1, 24 h, read-out: Minimum Inhibitory Concentration, P1
E. coli MDR 1057 WT [7] = experiment: microbe, parasite or virus in culture; conditions: Escherichia coli, MDR1057WT, 24 h, read-out: Minimum Inhibitory Concentration, WT
E. coli MDR 1057 B2 [8] = experiment: microbe, parasite or virus in culture; conditions: Escherichia coli, MDR1057B2, 24 h, read-out: Minimum Inhibitory Concentration, B2
[9] = system: extensively drug-resistant Klebsiella pneumoniae isolate; set-up: method as in PMID 30445429; conditions: serially passaged in the presence of the agent; cited from earlier work
[10] = system: resistant Salmonella enterica strain (pmrB mutations); conditions: cited from earlier work

Compound	Minimum Inhibitory Concentration, P1 (E. coli MDR 1057 P1 [1])	Minimum Inhibitory Concentration, B3 (E. coli MDR 1057 B3 [2])	Minimum Inhibitory Concentration, WT (E. coli MDR 1057 WT [3])	Minimum Inhibitory Concentration, B2 (E. coli MDR 1057 B2 [4])	MIC (E. coli MDR 1057 B3 [5])	MIC (E. coli MDR 1057 P1 [6])	MIC (E. coli MDR 1057 WT [7])	MIC (E. coli MDR 1057 B2 [8])	increase in MIC after serial passage [9]	MIC after a single pmrB mutation [10]
CC[C@H](C)[C@H](NC(=O)[C@@H]1CCCN1C(=O)CNC(=O)[C@@H](NC(=O)[C@H](Cc1ccccc1)NC(=O)[C@@H]1CCCN1C(=O)CNC(=O)[C@@H](NC(=O)[C@H](CCCCN)NC(=O)[C@H](Cc1c[nH]cn1)NC(=O)[C@H](Cc1c[nH]c2ccccc12)NC(=O)[C@H](CC(C)C)NC(=O)[C@H](CCCNC(=N)N)NC(=O)[C@H](CCCCN)NC(=O)[C@H](CC(C)C)NC(=O)[C@H](CCCCN)NC(=O)[C@H](CCCCN)NC(=O)[C@H](CCCNC(=N)N)NC(=O)[C@H](Cc1ccccc1)NC(=O)[C@H](CCCNC(=N)N)NC(=O)[C@H](CCCCN)NC(=O)[C@H](Cc1ccccc1)NC(=O)[C@H](CCCNC(=N)N)NC(=O)CN)C(C)C)C(C)C)C(=O)N[C@@H](CC(C)C)C(=O)N[C@@H](Cc1c[nH]cn1)C(=O)N[C@@H](Cc1ccc(O)cc1)C(=O)O [ChMAP-28] (H-GRFKRFRKKLKRLWHKVGPFVGPILHY-OH)	0.063 µM	0.063 µM	0.063 µM	0.063 µM						
CC[C@H](C)[C@H](NC(=O)[C@H](CCCCN)NC(=O)[C@H](CCC(=O)O)NC(=O)[C@H](CCCCN)NC(=O)[C@H](CO)NC(=O)[C@H](CCCCN)NC(=O)[C@H](CCCNC(=N)N)NC(=O)[C@H](Cc1ccccc1)NC(=O)[C@H](Cc1ccccc1)NC(=O)[C@H](CC(=O)O)NC(=O)CNC(=O)[C@H](CC(C)C)NC(=O)[C@@H](N)CC(C)C)C(=O)NCC(=O)N[C@@H](CCCCN)C(=O)N[C@@H](CCC(=O)O)C(=O)N[C@@H](Cc1ccccc1)C(=O)N[C@@H](CCCCN)C(=O)N[C@@H](CCCNC(=N)N)C(=O)N[C@H](C(=O)N[C@H](C(=O)N[C@@H](CCC(N)=O)C(=O)N[C@@H](CCCNC(=N)N)C(=O)N[C@H](C(=O)N[C@@H](CCCCN)C(=O)N[C@@H](CC(=O)O)C(=O)N[C@@H](Cc1ccccc1)C(=O)N[C@@H](CC(C)C)C(=O)N[C@@H](CCCNC(=N)N)C(=O)N[C@@H](CC(N)=O)C(=O)N[C@@H](CC(C)C)C(=O)N[C@H](C(=O)N1CCC[C@H]1C(=O)N[C@@H](CCCNC(=N)N)C(=O)N[C@H](C(=O)N[C@@H](CCC(=O)O)C(=O)N[C@@H](CO)C(=O)O)[C@@H](C)O)C(C)C)[C@@H](C)CC)C(C)C)[C@@H](C)CC [LL-37]	1 µM	2 µM	4 µM	2 µM						
CO/N=C(\C(=O)N[C@@H]1C(=O)N2C(C(=O)O)=C(CSc3nc(=O)c(=O)[nH]n3C)CS[C@H]12)c1csc(N)n1 [Ceftriaxone]					128 µM (≈ 71 µg/mL)	128 µM (≈ 71 µg/mL)	128 µM (≈ 71 µg/mL)	128 µM (≈ 71 µg/mL)		
CC[C@H]1OC(=O)[C@H](C)[C@@H](O[C@H]2C[C@@](C)(OC)[C@@H](O)[C@H](C)O2)[C@H](C)[C@@H](O[C@@H]2O[C@H](C)C[C@H](N(C)C)[C@H]2O)[C@](C)(O)C[C@@H](C)/C(=N\OCOCCOC)[C@H](C)[C@@H](O)[C@]1(C)O [Roxithromycin]					256 µM (≈ 214 µg/mL)	> 256 µM	256 µM (≈ 214 µg/mL)	256 µM (≈ 214 µg/mL)		
CC(C)C[C@H](NC(=O)[C@H](CCCNC(=N)N)NC(=O)[C@@H]1CCCN1C(=O)[C@@H]1CCCN1C(=O)[C@H](Cc1ccccc1)NC(=O)[C@H](Cc1ccccc1)NC(=O)[C@@H]1CCCN1C(=O)[C@@H]1CCCN1C(=O)[C@@H]1CCCN1C(=O)[C@H](CCCNC(=N)N)NC(=O)[C@@H]1CCCN1C(=O)[C@H](CCCNC(=N)N)NC(=O)[C@@H]1CCCN1C(=O)[C@H](CC(C)C)NC(=O)[C@H](Cc1ccc(O)cc1)NC(=O)[C@@H]1CCCN1C(=O)[C@@H]1CCCN1C(=O)[C@H](CCCNC(=N)N)NC(=O)[C@@H]1CCCN1C(=O)[C@H](CCCNC(=N)N)NC(=O)[C@H](CCCNC(=N)N)NC(=O)[C@@H](N)CCCNC(=N)N)C(=O)O [PR-39_1-22] (H-RRRPRPPYLPRPRPPPFFPPRL-OH)	16 µM	>32 µM	2 µM	>32 µM						
O=C(O)c1cn(C2CC2)c2cc(N3CCNCC3)c(F)cc2c1=O [Ciprofloxacin]						128 µM (≈ 42.4 µg/mL)		128 µM (≈ 42.4 µg/mL)		
colistin									≥ 1000 fold	up to 3 µg/mL and ≤ 4 µM
CC(C)C[C@H](NC(=O)[C@H](CCCNC(=N)N)NC(=O)[C@@H](N)CCCNC(=N)N)C(=O)N[C@@H](CCCNC(=N)N)C(=O)N1CCC[C@H]1C(=O)N[C@@H](CCCNC(=N)N)C(=O)N[C@@H](CCCNC(=N)N)C(=O)N1CCC[C@H]1C(=O)N[C@@H](CCCNC(=N)N)C(=O)N[C@@H](CC(C)C)C(=O)N1CCC[C@H]1C(=O)N[C@@H](CCCNC(=N)N)C(=O)N1CCC[C@H]1C(=O)N[C@@H](CCCNC(=N)N)C(=O)N1CCC[C@H]1C(=O)N[C@@H](CCCNC(=N)N)C(=O)N1CCC[C@H]1C(=O)N[C@@H](CCCNC(=N)N)C(=O)N1CCC[C@H]1C(=O)N[C@@H](CCCNC(=N)N)C(=O)N1CCC[C@H]1C(=O)N[C@@H](CCCNC(=N)N)C(=O)O [mini-ChBac7.5Nα] (H-RRLRPRRPRLPRPRPRPRPRPR-OH)	>32 µM	>32 µM	8 µM	>32 µM						
CC(C)[C@@H]1NC(=O)[C@H](Cc2ccc(O)cc2)NC(=O)[C@H](Cc2c[nH]c3ccccc23)NC(=O)[C@@H](NC(=O)[C@H](Cc2ccccc2)NC(=O)CN)CSSC[C@@H](C(=O)N[C@@H](CC(N)=O)C(=O)O)NC(=O)[C@H](CCCNC(=N)N)NC(=O)[C@H](CCCNC(=N)N)NC(=O)[C@H](Cc2ccc(O)cc2)NC(=O)[C@@H]2CSSC[C@H](NC1=O)C(=O)N[C@@H](C)C(=O)N[C@@H](CCCNC(=N)N)C(=O)N[C@@H](CCCNC(=N)N)C(=O)N[C@@H](CC(N)=O)C(=O)NCC(=O)N[C@@H](C)C(=O)N[C@@H](CCCNC(=N)N)C(=O)N[C@@H](C(C)C)C(=O)N2 [AA139] (H-GFCWYVCARRNGARVCYRRCN-OH; disulfide 3-20, 7-16 (inferred))	0.5 µM	1 µM	0.25 µM	0.25 µM						
CC1(C)S[C@@H]2[C@H](NC(=O)[C@H](N)c3ccccc3)C(=O)N2[C@H]1C(=O)O [Ampicillin]					256 µM (≈ 89.4 µg/mL)	256 µM (≈ 89.4 µg/mL)	256 µM (≈ 89.4 µg/mL)	256 µM (≈ 89.4 µg/mL)		
CNC(C)C1CCC(N)C(OC2C(N)CC(N)C(OC3OCC(C)(O)C(NC)C3O)C2O)O1 (centres unmarked) [Gentamicin]					2 µM (≈ 0.955 µg/mL)	4 µM (≈ 1.91 µg/mL)	2 µM (≈ 0.955 µg/mL)	2 µM (≈ 0.955 µg/mL)		
O=C(N[C@H](CO)[C@H](O)c1ccc([N+](=O)[O-])cc1)C(Cl)Cl [Chloramphenicol]					8 µM (≈ 2.59 µg/mL)	16 µM (≈ 5.17 µg/mL)	8 µM (≈ 2.59 µg/mL)	16 µM (≈ 5.17 µg/mL)		
CN[C@@H]1[C@H](O)[C@H](NC)[C@H]2O[C@@]3(O)C(=O)C[C@@H](C)O[C@H]3O[C@@H]2[C@H]1O [Spectinomycin]					32 µM (≈ 10.6 µg/mL)	64 µM (≈ 21.3 µg/mL)	32 µM (≈ 10.6 µg/mL)	32 µM (≈ 10.6 µg/mL)		
CO[C@H]1/C=C/O[C@@]2(C)Oc3c(C)c(O)c4c(O)c(c(/C=N/N5CCN(C)CC5)c(O)c4c3C2=O)NC(=O)/C(C)=C\C=C\[C@H](C)[C@H](O)[C@@H](C)[C@@H](O)[C@@H](C)[C@H](OC(C)=O)[C@@H]1C [Rifampicin]					64 µM (≈ 52.7 µg/mL)	64 µM (≈ 52.7 µg/mL)	64 µM (≈ 52.7 µg/mL)	128 µM (≈ 105 µg/mL)		
CC(C)C[C@H](NC(=O)[C@H](CCCNC(=N)N)NC(=O)CNC(=O)CNC(=O)[C@@H](N)CCCNC(=N)N)C(=O)N[C@H]1CSSC[C@@H](C(=O)N[C@H](C(=O)NCC(=O)N[C@@H](CCCNC(=N)N)C(=O)O)C(C)C)NC(=O)[C@H](C(C)C)NC(=O)[C@@H]2CSSC[C@H](NC(=O)[C@H](Cc3ccc(O)cc3)NC1=O)C(=O)N[C@@H](CCCNC(=N)N)C(=O)N[C@@H](CCCNC(=N)N)C(=O)N[C@@H](CCCNC(=N)N)C(=O)N[C@@H](Cc1ccccc1)C(=O)N2 [Protegrin-1] (H-RGGRLCYCRRRFCVCVGR-OH; disulfide 6-15, 8-13; N-terminus and C-terminus assumed)	0.25 µM	0.25 µM	0.25 µM	0.25 µM						
